We go through 32 compounds from patent US6190849A, “Photographic element containing ballasted tetrazole derivative and inhibitor releasing coupler” (priority 1999, dated 2001).

The nature of assay [1]: Contrast (gamma) reduction by DI(A)R in single layer film element, C-41 process. Particulars: DIR at 0.055 mmol/m^2, relative to non-inhibitor containing check; KODAK FLEXICOLOR (C-41). The source says:
The mild inhibitor fragments that are used in this invention are defined as those that cause less than a 45% gamma reduction, or more preferably less than a 40% gamma reduction, relative to a non-inhibitor containing check when coated as the following single layer film element on a cellulose triacetate film support (coverages are in g/m^2): […]
Overcoat Gelatin at 2.79 and 0.02 bis-vinylsulfonemethylether
Imaging Layer Gelatin at 2.79
Magenta Image Coupler M-1 (dispersed at 80% by
weight in tricresyl phosphate and 20% by weight
N,N-dibutyl-2-butoxy-5-t-octylaniline) at 0.692
DIR being tested at 0.055 mmol/m^2 (dispersed in twice
its weight in N,N-dibutyllauramide)
Green sensitized AgBrI at 1.08
Samples of each element were given a stepped exposure and processed in the KODAK FLEXICOLOR (C-41) process as described in British Journal of Photography Annual, 1988, pp 196-198. Contrast of the elements was determined using the maximum slope between any two density points.

Assay [2] can be described thus: Interimage in bilayer format: IDIR-2 in blue layer, IEM in green layer. Particulars: for Cg /Cb+g (interimage): IEM or CIEM in green layer at 7.2×10^-3 mmol/m^2, higher ratio = more interimage, no-IEM check; for Relative Speed (green layer): IEM or CIEM in green layer, speed point +0.15 density above Dmin, normalized to check. The method, then: Bilayer photographic elements were prepared by coating the following layers on a cellulose triacetate film support (coverages are in g/m^2). Unless otherwise noted, all comparative and inventive compounds were dispersed in twice their own weight of N,N-dibutyllauramide: […] Layer 3 (Interlayer): gelatin at 0.64, ILS-1 at 0.11 and FD-1 at 0.11. […] Layer 5 (Overcoat): gelatin at 2.79 and 0.02 bis-vinylsulfonemethylether. […] Contrast of the elements was determined using the maximum slope between any two density points. In this test, the ratio of the contrast of the green only exposure to the contrast of the green of a blue and green exposure (Cg /Cb+g) is a measure of the interimage. A higher ratio means more inhibition originating from the blue and affecting the green record. Relative speed of the green layer was determined by measuring the speed point +0.15 density units above Dmin and normalizing to the check position.

On to `CCC(Oc1ccc(C(C)(C)CC)cc1C(C)(C)CC)C(=O)Nc1ccc(N2N=C(N3CCCC3)C(Sc3nnnn3-c3ccccc3)C2=O)cc1` (stereo not drawn) [CDIR-2], for which the “% Contrast Reduction” value in assay [1] was -67.1%.

In the case of `CCCCCCCCCCCCCCOc1ccccc1NC(=O)c1cc(Oc2ccc([N+](=O)[O-])cc2CN(C(=O)Sc2nnnn2-c2ccccc2)C(C)C)c2ccccc2c1O` [CDIR-3], the “% Contrast Reduction” value in assay [1] was -75.7%.

With `CCCCCCCCCCCCCCOc1ccccc1NC(=O)c1cc(Oc2ccc(CSc3nnnn3-c3ccccc3)cc2[N+](=O)[O-])c2ccccc2c1O` [CDIR-4], in assay [1], the “% Contrast Reduction” value is -77.1%.

Consider `CCCCCCCCCCCCCCOc1ccccc1NC(=O)c1cc(Oc2ccc(CSc3nnnn3-c3ccccc3)cc2[N+](=O)[O-])c2ccccc2c1O` [CDIR-5], for which, in assay [1], the “% Contrast Reduction” value is -70.5%.

On to `CCCCCCCCCCCCCCOc1ccccc1NC(=O)c1cc(Sc2nnnn2-c2ccccc2)c2ccccc2c1O` [CDIR-6], for which the “% Contrast Reduction” value in assay [1] is on record as -75.4%.

For the compound `CCCCCCCCCCCCCCCCS(=O)(=O)Nc1ccc(Cl)c(NC(=O)C(Oc2ccc([N+](=O)[O-])cc2CN(CC)C(=O)Sc2nnnn2-c2ccccc2)C(=O)C(C)(C)C)c1` (stereo not drawn) [CDIR-7], the “% Contrast Reduction” value in assay [1] is listed as -63.9%.

`CCCCCCOC(=O)c1nn(C2C(=O)N(c3ccc(NC(=O)C(CC)Oc4ccc(C(C)(C)CC)cc4C(C)(C)CC)cc3)N=C2C)nc1C` (stereo not drawn) [CDIR-8]: the “% Contrast Reduction” value in assay [1] is on record as -49.2%.

As for `CCCCCCCCCCC(Oc1ccc(S(=O)(=O)c2ccc(O)cc2)cc1)C(=O)Nc1ccc(N2N=C(C)C(n3nc(C)c(C(=O)OCCCCCC)n3)C2=O)cc1` (stereo not drawn) [CDIR-9], the “% Contrast Reduction” value in assay [1] is -50.1%.

Regarding `CCCCCCCCCCCCCCCCS(=O)(=O)Nc1ccc(Cl)c(NC(=O)C(C(=O)C(C)(C)C)n2nc(C)c(C(=O)OCCCCCC)n2)c1` (stereo not drawn) [CDIR-10], the “% Contrast Reduction” value in assay [1] was -53.8%.

With `CCCCCCCCCCCCCCCCS(=O)(=O)Nc1ccc(Cl)c(NC(=O)C(C(=O)C(C)(C)C)n2ncc(SCC(=O)OCCCCCC)n2)c1` (stereo not drawn) [CDIR-11], in assay [1], the “% Contrast Reduction” value is recorded as -58.6%.

For `S=c1[nH]nnn1-c1ccccc1` [CIEM-2], in assay [2], the “Cg /Cb+g (interimage)” value was found to be 1.44 and the “Relative Speed (green layer)” value amounted to 0.91.

As to `O=C(O)Cn1nn[nH]c1=S` [CIEM-3], in assay [2], the “Cg /Cb+g (interimage)” value was found to be 1.23 and the “Relative Speed (green layer)” value came to 0.99.

In the case of `CCn1nn[nH]c1=S` [CIEM-4], in assay [2], the “Cg /Cb+g (interimage)” value is reported as 1.22 and the “Relative Speed (green layer)” value was 1.00.

Regarding `CCn1nn[nH]c1=S` [CIEM-5], in assay [2], the “Cg /Cb+g (interimage)” value was determined as 1.23 and the “Relative Speed (green layer)” value worked out at 1.00.

Turning to `CCC(C)OC(=O)C(CCSC)n1nn[nH]c1=S` (stereo not drawn) [CIEM-6], in assay [2], the “Cg /Cb+g (interimage)” value turned out to be 1.72 and the “Relative Speed (green layer)” value came out at 0.90.

For the compound `CSCC(CSC)OC(=O)CCn1nn[nH]c1=S` [CIEM-7], in assay [2], the “Cg /Cb+g (interimage)” value is reported as 1.45 and the “Relative Speed (green layer)” value is recorded as 0.90.

Take `CSCC(=O)Nc1cccc(-n2nn[nH]c2=S)c1` [CIEM-8]: in assay [2], the “Cg /Cb+g (interimage)” value was 1.47 and the “Relative Speed (green layer)” value came to 0.92.

For `O=C(O)c1ccc(-n2nn[nH]c2=S)cc1` [CIEM-9], in assay [2], the “Cg /Cb+g (interimage)” value is given as 1.21 and the “Relative Speed (green layer)” value amounted to 1.00.

Consider `CCCCCCCCCCCCCCCCS(=O)(=O)Nc1cc(CSc2nnnn2CC(=O)OCCC)ccc1Oc1cc(C(N)=O)c(O)c2ccccc12` [IDIR-1], for which the “% Contrast Reduction” value in assay [1] is on record as -34.5%.

Turning to `CCCCCCCCCCCCCCCCS(=O)(=O)Nc1ccc(Cl)c(NC(=O)C(Oc2ccc([N+](=O)[O-])cc2CN(CC)C(=O)Sc2nnnn2CC(=O)OCCC)C(=O)C(C)(C)C)c1` (stereo not drawn) [IDIR-2], in assay [1], the “% Contrast Reduction” value is reported as -25.3%.

Take `CCCCCCCCCCCCOc1ccc(C)cc1NC(=O)c1cc(Oc2ccc(CSc3nnnn3CC(=O)OCCC)cc2[N+](=O)[O-])c2ccccc2c1O` [IDIR-3]: in assay [1], the “% Contrast Reduction” value is -24.5%.

Turning to `CCCOC(=O)Cn1nnnc1SC1C(=O)N(c2ccc(NC(=O)C(CC)Oc3ccc(C(C)(C)CC)cc3C(C)(C)CC)cc2)N=C1N1CCCC1` (stereo not drawn) [IDIR-4], the “% Contrast Reduction” value in assay [1] is -22.6%.

In the case of `CCCCCCCCCCCCOC(=O)C(C)OC(=O)c1ccc(Cl)c(NC(=O)C(C(=O)Nc2cc(C(=O)OC(C)C(=O)OCCCCCCCCCCCC)ccc2Cl)n2nnc3cc(Cl)c(Cl)cc32)c1` (stereo not drawn) [IDIR-7], the “% Contrast Reduction” value in assay [1] was -20.0%.

As to `CCCCCCCCCCCCCCOc1ccccc1NC(=O)c1cc(Sc2nnnn2CC)c2ccccc2c1O` [IDIR-8], the “% Contrast Reduction” value in assay [1] is reported as -2.4%.

Take `O=C(CSCCn1nn[nH]c1=S)OC1CCCCC1` [IEM-3]: in assay [2], the “Cg /Cb+g (interimage)” value stood at 1.85 and the “Relative Speed (green layer)” value came out at 0.91.

With `CCCCCCCCCOC(=O)C(CCSC)n1nn[nH]c1=S` (stereo not drawn) [IEM-5], in assay [2], the “Cg /Cb+g (interimage)” value came out at 1.39 and the “Relative Speed (green layer)” value is recorded as 0.96.

Take `CCCCCCCCOC(=O)CSCCn1nn[nH]c1=S` [IEM-6]: in assay [2], the “Cg /Cb+g (interimage)” value was determined as 1.31 and the “Relative Speed (green layer)” value worked out at 0.99.

For the compound `CCCCOC(=O)CSCCn1nn[nH]c1=S` [IEM-7], in assay [2], the “Cg /Cb+g (interimage)” value was 1.75 and the “Relative Speed (green layer)” value is 0.95.

With `CCCCCCCOC(=O)C(CCC)n1nn[nH]c1=S` (stereo not drawn) [IEM-8], in assay [2], the “Cg /Cb+g (interimage)” value came out at 2.02 and the “Relative Speed (green layer)” value worked out at 0.91.

As for `CCCCCC(=O)Nc1cccc(-n2nn[nH]c2=S)c1` [IEM-9], in assay [2], the “Cg /Cb+g (interimage)” value is on record as 2.20 and the “Relative Speed (green layer)” value stood at 0.91.

For the compound `CCCCCCCC(=O)Nc1cccc(-n2nn[nH]c2=S)c1` [IEM-10], in assay [2], the “Cg /Cb+g (interimage)” value turned out to be 1.96 and the “Relative Speed (green layer)” value is on record as 0.91.

Regarding `CCCCCCCCCCC(=O)Nc1cccc(-n2nn[nH]c2=S)c1` [IEM-11], in assay [2], the “Cg /Cb+g (interimage)” value is reported as 1.29 and the “Relative Speed (green layer)” value was 0.99.
